Reference: paper PMC3017812 (Chembiochem : a European journal of chemical biology, 2010)

Target: His-tagged MDM2 (Homo sapiens, UniProt Q00987)
Experiment: competitive fluorescence polarization binding assay

Row | fold lower affinity for MDM2 relative to peptide 1 (fluorescence polarization assay, compared with unconstrained peptide 1) | Kd (read-out: KD, binding affinity for MDM2, competitive fluorescence polarization assay, His-tagged MDM2) [µM] | Molecule
1 | seven-fold lower affinity | – | CC(C)C[C@H](NC(=O)[C@H](CC(=O)O)NC(=O)[C@H](CO)NC(=O)[C@H](Cc1ccccc1)N1C/C=C/CCC(=O)N[C@@H](CCC(=O)O)C(=O)N[C@@H](C)C1=O)C(=O)N[C@@H](Cc1c[nH]c2ccccc12)C(=O)N[C@@H](CCCCN)C(=O)N[C@@H](CC(C)C)C(=O)N[C@@H](CC(C)C)C(=O)N1CCC[C@H]1C(=O)N[C@@H](CCC(=O)O)C(=O)N[C@@H](CC(N)=O)C(=O)N[C@@H](CC(N)=O)C(=O)N[C@H](C(N)=O)C(C)C [HBS 2]
2 | – | > 125 | HBS 3: negative control of 2, Phe-19 and Leu-26 mutated to alanine (EAASDLWKLAPENNV)
